Data on 4 compounds can be found in patent US12601016B2, “Genetically encoded fluorescent indicators under optogenetic control and uses thereof” (LUMISTAR BIOTECHNOLOGY, INC., priority 2018, dated 2026).

Assay [1] relates to HL-1 cells. The experiment in a line: Pharmacological stimulation by caffeine in HL-1 cells imaged using NIR-GECO1. Type of assay: cell-based, mouse. Conditions: 10 mM caffeine. On the procedure: (§1) Representative time courses of Ca^2+ influx influenced by pharmacological stimulations of caffeine (10 mM). Spontaneous calcium oscillations were also able to be observed before applications of caffeine.
NIR-GECO1 and NIR-GECO2 were then tested for its performance in cardiovascular research. In one aspect of the present invention, a cell culture of stable immortalized cell lines, known as the HL-1 cell line, derived from mouse atrial cardiomyocytes is used as a model.
(§2) With reference to FIG. 8, NIR-GECO1 expressed in HL-1 (A) and iPSC-CMs (B), and NIR-GECO2 expressed in iPSC-CMs (C) were tested for pharmacological stimulation.
To culture the HL-1 cell line, flasks were pre-coated with gelatin/fibronectin at 37° C. overnight. […]
(§3) An inverted microscope (D1, Zeiss) equipped with a 63× objective lens (NA 1.4, Zeiss) and a multiwavelength LED light source (pE-4000, CoolLED) was used. […] The filter set (T685lpxr dichroic mirror, and ET720/60 emission filter) was used to stimulate ChR2 and to acquire fluorescence imaging of NIR-GECO1. […] Fluorescence signals were recorded by a CMOS camera (ORCA-Flash4.0LT, HAMAMATSU) and controlled by a HC Image software.

For assay [2], the system named is iPSC-CMs. The experiment in a line: Pharmacological stimulation by caffeine in iPSC-CMs imaged using NIR-GECO1 or NIR-GECO2. It is filed as cell-based, human. The settings on record: 10 mM caffeine. On the procedure:
as §1, §2
Human iPSC-derived cardiomyocytes (Human iPSC Cardiomyocytes[…]|ax2505) were purchased from Axol Bioscience. The cells were plated in two wells of a 6-well plate and cultured for eight days in Axol's Cardiomyocyte Maintenance Medium to 80-90% confluency. Cells then were re-plated on Fibronectin/Gelatin (0.5%/0.1%) coated glass bottom dishes for final observation with Tyrode's buffer. […]
as §3

The test system of assay [3] is voltage-gated L-type calcium channels. The experiment in a line: L-type calcium channel inhibitors applied to iPSC-CMs, optically paced Ca^2+ transients imaged using K-GECO1 with ChR2. Type of assay: cell-based, human. Conditions: 1 μM; 470-nm pulses of 40 ms at 0.3 Hz. An excerpt:
(A) A representative time course of spontaneous Ca^2+ oscillations in iPSC-CMs as imaged using K-GECO1. (B) Photoactivation of R-GECO1 and (C) K-GECO1 in iPSC-CMs. Cells with and without spontaneous activities are shown in trace (i) and (ii), respectively. (D) Combined use of K-GECO1 and channelrhodopsin-2 (ChR2) in iPSC-CMs for all-optical control and observation of Ca^2+ transients. Illumination with 470-nm light at a pulse duration of 150 ms for optical control is indicated by arrowheads. (E) Small molecular inhibitors of the voltage-gated L-type calcium channels were applied to iPSC-CMs. iPSC-CMs were plated out at low density and exposed to clinically relevant doses of 100 nM and 1 μM for nifedipine and verapamil, respectively. Traces were obtained with optical stimulation by 470-nm light at a pulse duration of 40 ms at 0.3 Hz. […]
An inverted microscope (D1, Zeiss) equipped with a 63× objective lens (NA 1.4, Zeiss) and a multiwavelength LED light source (pE-4000, CoolLED) was used. […] The filter set (Q565lp dichroic mirror, and HQ620/60 emission filter) was used to stimulate ChR2 and to acquire fluorescence imaging of K-GECO1 or R-GECO1. […] Fluorescence signals were recorded using a CMOS camera (ORCA-Flash4.0LT, HAMAMATSU) controlled by a HC Image software.

A short description of assay [4]: In vitro fluorescence characterization of purified NIR-GECO1. It is filed as physicochemical. The settings on record: inverse response indicator. An excerpt: (§4) NIR-GECO1 is a near infrared indicator and is engineered from a naturally-monomeric infrared fluorescent proteins (mIFP). NIR-GECO1 has absorbance and emission peaks at 678 and 704 nm, respectively, and undergoes a 90% decrease in fluorescence intensity upon binding Ca^2+, serving as an inverse response indicator contrast to K-GECO1, as shown in FIG. 2B.
To purify NIR-GECO variants for in vitro characterization, the gene encoding variants of interest with a poly-histidine tag on the C terminus, was expressed from the pBAD vector. Bacteria were lysed with a cell disruptor (Constant Systems Ltd) and then centrifuged at 15,000 g for 30 min, and proteins were purified by Ni-NTA affinity chromatography (Agarose Bead Technologies). […]
The extinction coefficients were determined by comparing the absorbance value at 678 nm to the absorbance value at the 391 nm and assuming an extinction coefficient of 39,900 M^− cm^− at 391 nm. […] The concentration of NIR-GECO variants (Ca^2+-free), NIR-GECO variants (Ca^2+-saturated) and mIFP was adjusted to have absorbance of 0.2-0.6 at 650 nm. A series of dilutions, with absorbance ranging from 0.01 to 0.05, were prepared, and integrated emission intensity versus absorbance was plotted. Quantum yields were determined from the slopes (S) of each line using the equation Φprotein=Φstandard*(Sprotein/Sstandard).

Assay [5] concerns iPSC-CMs. The experiment in a line: Blue-light photoactivation testing of GECIs expressed in iPSC-CMs. It is filed as cell-based, human. The settings on record: 0.19 W/cm^2 of 470-nm LED light. An excerpt:
(A) A representative time course of spontaneous Ca^2+ oscillations in iPSC-CMs as imaged using K-GECO1. (B) Photoactivation of R-GECO1 and (C) K-GECO1 in iPSC-CMs. Cells with and without spontaneous activities are shown in trace (i) and (ii), respectively. (D) Combined use of K-GECO1 and channelrhodopsin-2 (ChR2) in iPSC-CMs for all-optical control and observation of Ca^2+ transients. Illumination with 470-nm light at a pulse duration of 150 ms for optical control is indicated by arrowheads. (E) Small molecular inhibitors of the voltage-gated L-type calcium channels were applied to iPSC-CMs. iPSC-CMs were plated out at low density and exposed to clinically relevant doses of 100 nM and 1 μM for nifedipine and verapamil, respectively. Traces were obtained with optical stimulation by 470-nm light at a pulse duration of 40 ms at 0.3 Hz.
FIG. 7. Examination of photoactivation effects of NIR-GECO1 and NIR-GECO2 expressed in iPSC-CMs. […]
An inverted microscope (D1, Zeiss) equipped with a 63× objective lens (NA 1.4, Zeiss) and a multiwavelength LED light source (pE-4000, CoolLED) was used. […] The filter set (Q565lp dichroic mirror, and HQ620/60 emission filter) was used to stimulate ChR2 and to acquire fluorescence imaging of K-GECO1 or R-GECO1. […] Fluorescence signals were recorded using a CMOS camera (ORCA-Flash4.0LT, HAMAMATSU) controlled by a HC Image software. […]

Assay [6] in a line: Ca^2+ titration of purified NIR-GECO variants (EGTA-buffered Ca^2+ solutions). Type of assay: binding. Conditions: Ca^2+ titration of purified protein, 25° C.; read-out: apparent Kd.
Text: as §4
To purify NIR-GECO variants for in vitro characterization, the gene encoding variants of interest with a poly-histidine tag on the C terminus, was expressed from the pBAD vector. Bacteria were lysed with a cell disruptor (Constant Systems Ltd) and then centrifuged at 15,000 g for 30 min, and proteins were purified by Ni-NTA affinity chromatography (Agarose Bead Technologies). The buffer was typically exchanged to 10 mM MOPS, 100 mM KCl (pH 7.2) with centrifugal concentrators (GE Healthcare Life Sciences).
Ca^2+ titrations were carried out using EGTA-buffered Ca^2+ solutions (Calcium Calibration Buffer Kit no. 1, Life Technologies). We prepared buffers by mixing a CaEGTA buffer (30 mM MOPS, 100 mM KCl, 10 mM EGTA, 10 mM CaCl2) and an EGTA buffer (30 mM MOPS, 100 mM KCl, 10 mM EGTA) to give free Ca^2+ concentrations ranging from 0 to 39 μM at 25° C. Fluorescence intensities were plotted against Ca^2+ concentrations and fitted by a sigmoidal binding function to determine the Hill coefficient and Kd.

With `Cn1c(=O)c2c(ncn2C)n(C)c1=O` [caffeine], the “fluorescence intensity change (inverse indicator: increase in cytosolic Ca^2+ concentration)” value in assay [1] and in assay [2] was “significant decreases in fluorescence intensities” each time.
`COc1ccc(CCN(C)CCCC(C#N)(c2ccc(OC)c(OC)c2)C(C)C)cc1OC` (centres unmarked) [verapamil]: the “effect on triggered intensity change as imaged using K-GECO1” value in assay [3] was “suppress the triggered intensity change”.
Take “NIR-GECO1: near infrared genetically encoded Ca^2+ indicator engineered from monomeric infrared fluorescent protein mIFP (SEQ ID NO. 6)”: the “decrease in fluorescence intensity upon binding Ca^2+” value in assay [4] was determined as 90%. In assay [5] (pulse duration 40 ms), the “photoactivation: changes in fluorescence intensity under illumination” value was “no significant changes in fluorescence intensity”. Besides, the Kd in assay [6] amounted to 0.215 µM.
For “NIR-GECO2: near infrared Ca^2+ indicator sharing 99% sequence identity with NIR-GECO1 (SEQ ID NO. 7)”, the “photoactivation: changes in fluorescence intensity under illumination” value in assay [5] (pulse duration 100 ms) is listed as “no significant changes in fluorescence intensity”. For the same compound, in assay [6], the Kd was determined as 0.48 µM.
